Laboratory results from patent publication EP4592276A1, “NOVEL ACY[…] OF PSILOCIN AND RELATED 4-HYDROXYT[…] BY AN EFFICIENT […] APPROACH” (Universität Heidelberg, priority 2024, dated 2025).
Counter-ions that a name gives are not always drawn. Marks after values point to notes of the source that are not given here.

Assays:
[1] = Passive membrane permeation assay (PAMPA); type: in vitro ADME; conditions: pre-coated PAMPA plate, PBS pH 7.4, 200 µM, 25 °C; for R (mass retention) / Pe: 5 h; for Papp at 5 h, 200 µM / Pe: mean ± standard deviation; for Papp at 5 h, 200 µM: read-out: Pe
Method: The passive membrane permeability was evaluated with a pre-coated PAMPA plate system (BD Gentest, BD Bioscience, Germany) following the guidelines of the manufacturer and a previous literature report (cf. Kühl et al. Eur. J. Med. Chem. 2022, 240, 114585). Phosphate-buffered saline (PBS) pH 7.4 (Sigma-Aldrich, Germany) was used for all experiments. Analyte concentrations were determined on a Jasco HPLC system equipped with a UV detector and an RP-18 column (Chromolith® Performance RP-18e, 100x4.6 mm) using one of the gradients listed in Table 2. For all samples, the injection volume was 40 µl. Table 2: HPLC settings for the analysis of PAMPA samples.
Prior to performing the assay, the PAMPA plate was warmed to room temperature for 0.5 h. In the donor plate, 300 µL of the 200 µM compound solutions in PBS (4 % dimethyl sulfoxide (DMSO)) were dispensed in triplicate, and in the acceptor plate, 200 µL of PBS buffer were added to all wells. The plates were combined, and the system was incubated at 25 °C for 5 h. Upon completion of the incubation, donor and acceptor plate were separated. The wells were homogeneously mixed with a pipette, and a 100 µl sample of each donor and acceptor well was transferred to 96 well U-bottom polypropylene plates (Greiner Bio-One, Germany) for quantitative HPLC analysis.

[2] = Prodrug stability in human whole saliva; type: in vitro ADME; conditions: mean of fresh samples of three individuals, classified into three groups; for half-life at 50 µM: 37 °C
Method: Freshly collected saliva and 5 mM stock solutions of the analytes in DMSO were prewarmed to 37 °C for 10 min. Then, 700 µl prewarmed saliva was added to 7 µl of the prodrug stock, and the mixture was incubated at 37 °C. Samples (100 µL) were taken at selected time points (0, 10, 20, 40, 60 min; 2 h or 24 h) and immediately quenched with acetonitrile (200 µl). Blank samples were prepared by mixing saliva (100 µl) with acetonitrile (200 µl). Centrifugation (3,000 rpm, 5 min) of the quenched samples afforded clear supernatants which were transferred to 96 well U-bottom polypropylene plates (Greiner Bio-One, Germany). Analyte quantifications were performed on a Jasco HPLC system equipped with a UV detector and an RP-18 column (Chromolith® Performance RP-18e, 100x4.6 mm) using the gradients listed in Table 4. Samples that gave rise to asymmetric peaks inadequate for quantification were diluted (1:1) with H2O (+0.1 % TFA). The injection volume was 40 µl and the flow was set to 1.0 mL/min. UV detection was performed at 286 nm. […] Table 4: HPLC settings for quantitative analysis of saliva samples.

HuH-7 cells = experiment: Cell viability in HuH-7 cells (CellTiter-Blue); type: cell-based, human; conditions: for Cell Viability in HuH7 at 50 µM, 2 h Incubation / Cell Viability in HuH7 at 50 µM, 24 h Incubation: mean of triplicates ± standard deviation; for toxicity for HuH-7 cells: result in words
Method: In order to assess cytotoxic effects of compounds in cell culture, HuH-7 cells were incubated in presence of these compounds in a 96-well plate for 2 h or 24 h. In order to generate a calibration curve for cell viability, a serial dilution (1:2 dilution series) of cells was seeded into control wells. Measurement of cell viability is based on the assay development using CellTiter-Blue reagent (Resazurin, blue color), which is reduced to resofurin (pink color) by viable cells.
Prior to performing the assay, a 96-well assay plate (F-bottom, transparent, Greiner) containing HuH-7 cells (20,000 cells per well) in culture medium was prepared. […] CellTiter-Blue reagent (1-2 mL) was diluted with cell culture medium (10 mL) in a Falcon tube and prewarmed to 37 °C. The 96-well plate was removed from the incubator, the medium aspirated using a vacuum pump and 100 µL of diluted CellTiter-Blue reagent was added to each well.

[3] = Drug release kinetics (prodrug cleavage) in human blood plasma; type: in vitro ADME; conditions: for half-life at 50 µM / t1/2 at 37 °C and [prodrug]0 = 50 µM, 100 % Human Plasma: 100 % human plasma; for half-life at 50 µM / half-life: 37 °C; for half-life: 10 % human plasma in PBS, 50 µM
Method: Pooled human blood plasma (Biowest, France) and sterile Dulbecco's phosphate buffered saline (PBS) pH 7.3 (Sigma-Aldrich, Germany) were used for all experiments. The blood plasma was aliquoted upon receipt and stored at -20 °C. 10 % solutions were prepared by thawing a plasma aliquot at 2-8 °C, distributing it into plastic vials and diluting with the appropriate volume of sterile PBS. The 10 % and 100 % plasma aliquots were stored at -20 °C and thawed at 2-8 °C directly before the assay was performed. In a thermoblock, a plasma aliquot and 10 µl of a 5 mM prodrug solution in DMSO were prewarmed to 37 °C for 10 min in separate plastic vials. Then, 1000 µl of the prewarmed plasma sample was added to the prodrug solution, and 9×100 µl samples were withdrawn at appropriate time intervals. The enzymatic reaction was quenched by immediate mixing of the samples (100 µl) with acetonitrile (200 µl). Blank samples were prepared by mixing 10 % or 100 % plasma (100 µl) with acetonitrile (200 µl), respectively. Samples of the initial reaction mixture were prepared by adding the 5 mM prodrug solution (1 µl) to a blank sample.
Centrifugation (13,000 rpm, 3 min) of the quenched samples afforded clear supernatants which were transferred to 96 well U-bottom polypropylene plates (Greiner Bio-One, Germany). Analyte quantifications were performed on a Jasco HPLC system equipped with a UV detector and an RP-18 column (Chromolith® Performance RP-18e, 100x4.6 mm) using one of the gradients listed in Table 3. Prodrug degradation was monitored using undiluted supernatant and a 10 min chromatographic method. […] For all samples, the injection volume was 40 µL and the flow was set to 1.0 mL/min. […] Table 3: HPLC settings for quantitative analysis of plasma samples.

[4] = 100 % pooled human blood plasma

| SMILES | R (mass retention) [1] | Papp at 5 h, 200 µM [1] | Cell Viability in HuH7 at 50 µM, 2 h Incubation (HuH-7 cells) | Cell Viability in HuH7 at 50 µM, 24 h Incubation (HuH-7 cells) | also measured |
| --- | --- | --- | --- | --- | --- |
| Cn1c(=O)c2c(ncn2C)n(C)c1=O [Caffeine, reference compound] | 1% | 12.8 ± 0.9 ×10⁻⁶ cm/s | – | – | – |
| CN(C)CCc1c[nH]c2cccc(OCOC(=O)C(C)(C)C)c12 [Compound 15a, 4-Pivaloyloxymethyloxy-N,N-dimethyltryptammonium fumarate] | 4% | – | 61.6 ± 6.0% | 61.6 ±18.4% | half-life at 50 µM [2]: 15 to 60 min; Pe [1]: 9.1 ± 0.5 10^-6 cm/s; half-life at 50 µM [3]: > 5 h |
| CCN(C)CCc1c[nH]c2cccc(OC(=O)c3ccco3)c12.CCN(C)CCc1c[nH]c2cccc(OC(=O)c3ccco3)c12.O=C(O)/C=C/C(=O)O [Compound 8j, 4-(2-Furoyl)oxy-N-ethyl-N-methyltryptammonium fumarate] | – | – | 89.6 ± 3.4% | 78.0 ± 2.0% | t1/2 at 37 °C and [prodrug]0 = 50 µM, Human Saliva [2]: 15 to 60 min; t1/2 at 37 °C and [prodrug]0 = 50 µM, 100 % Human Plasma [3]: 0.14 ± 0.01 min |
| CN(C)CCCN1c2ccccc2CCc2ccccc21 [Imipramine HCl, reference compound] | – | – | 91.1 ± 3.7% | 24.4 ± 5.3% | – |
| NS(=O)(=O)c1cc(C(=O)O)c(NCc2ccco2)cc1Cl [Furosemide, reference compound] | – | – | 121.9 ± 13.8% | 90.7 ± 1.1% | Pe [1]: -0.4 ± 0.3^c 10^-6 cm/s |
| CCN(C)CCc1cn(C(=O)OCc2ccccc2)c2cccc(O)c12 [Compound 11, 1-Benzyloxycarbonyl-4-hydroxy-N-ethyl-N-methyltryptamine] | – | – | 0.1 ± 0.2% | -2.1 ± 0.1% | toxicity for HuH-7 cells (HuH-7 cells): extremely toxic; half-life at 50 µM [3, 4]: > 95 h |
| CCCC(=O)OCOc1cccc2[nH]cc(CCN(C)C)c12 [Compound 15b, 4-n-Butanoyloxymethyloxy-N,N-dimethyltryptammonium fumarate] | 7^b % | – | 90.0 ± 5.2% | 79.3 ± 3.5% | half-life at 50 µM [2]: < 15 min; Pe [1]: 8.1 ± 0.8^b 10^-6 cm/s |
| CCCC(=O)OCOc1cccc2[nH]cc(CCN(C)CC)c12 [Compound 15d, 4-n-Butanoyloxymethyloxy-N-ethyl-N-methyltryptammonium fumarate] | 6% | – | 85.4 ± 2.7% | 80.6 ± 3.3% | half-life at 50 µM [2]: < 15 min; Pe [1]: 8.0 ± 0.3 10^-6 cm/s |
| CN(C)CCc1c[nH]c2cccc(O)c12 [Psilocin 1, 4-Hydroxy-N,N-dimethyltryptamine, reference compound] | – | – | 93.7 ± 6.3% | 72.5 ± 8.3% | – |
| CCN(C)CCc1c[nH]c2cccc(O)c12 [4-OH-MET fumarate 17, 4-Hydroxy-N-ethyl-N-methyltryptammonium fumarate, reference compound] | 29% | 11 ± 1 ×10⁻⁶ cm/s | 91.0 ± 1.7% | 82.9 ± 1.3% | – |
| CCN(C)CCc1c[nH]c2cccc(OC(=O)C3CC3)c12.CCN(C)CCc1c[nH]c2cccc(OC(=O)C3CC3)c12.O=C(O)/C=C/C(=O)O [Compound 8e, 4-(Cyclopropanecarbonyloxy)-N-ethyl-N-methyltryptammonium fumarate] | – | – | 101.2 ± 3.1% | 81.7 ± 2.0% | t1/2 at 37 °C and [prodrug]0 = 50 µM, Human Saliva [2]: > 60 min; t1/2 at 37 °C and [prodrug]0 = 50 µM, 100 % Human Plasma [3]: 0.84 ± 0.11^c min |
| O=C1NC(=O)C(c2ccccc2)(c2ccccc2)N1 [Phenytoin, reference compound] | 57% | 7.5 ± 1 ×10⁻⁶ cm/s | 122.9 ± 1.7% | 84.2 ± 2.7% | – |
| CC(=O)Oc1ccccc1C(=O)O [Acetylsalicylic acid, reference compound] | – | – | 92.9 ± 3.3% | 83.8 ± 3.8% | half-life at 50 µM ([2]; both sexes): > 60 min |
| CCN(C)CCc1c[nH]c2cccc(OC(=O)CC(C)(C)C)c12 [Compound 8h, 4-(tert-Butylacetyl)oxy-N-ethyl-N-methyltryptammonium fumarate] | 1% | 11.2 ± 0.8 ×10⁻⁶ cm/s | 28.7 ± 1.1% | 42.3 ± 25.9% | half-life [3]: > 8 min |
| CN(C)CCc1cn(C(=O)OCc2ccccc2)c2cccc(O)c12 [Compound 10, 1-Benzyloxycarbonyl-4-hydroxy-N,N-dimethyltryptamine] | – | – | 0.1 ± 0.2% | -1.3 ± 0.1% | toxicity for HuH-7 cells (HuH-7 cells): extremely toxic; half-life at 50 µM [3, 4]: > 95 h |
| CCN(C)CCc1c[nH]c2cccc(OC(=O)CC(C)C)c12 [Compound 8g, 4-(3-Methylbutanoyl)oxy-N-ethyl-N-methyltryptammonium fumarate] | 2% | 10.6 ± 0.8 ×10⁻⁶ cm/s | 81.7 ± 8.6% | 79.8 ± 4.6% | half-life [3]: > 8 min |
